Measurements as given in ChEMBL document CHEMBL3751809, “Symmetric 4,4'-(piperidin-4-ylidenemethylene)bisphenol derivatives as novel tunable estrogen receptor (ER) modulators” (Bioorg Med Chem, 2016).
Calls of active or inactive are those of the source. The calls are words filed in the database; no cut-off is given here.

Assays:
[1] = biological target: T1, Estrogen receptor (Homo sapiens) (UniProt P03372); assay: Displacement of [6,7-3H]17beta-estradiol from recombinant human ERalpha ligand binding domain at 0.4 to 4 uM incubated for 16 hrs by scintillation counting analysis
T1 sequence (whole entry): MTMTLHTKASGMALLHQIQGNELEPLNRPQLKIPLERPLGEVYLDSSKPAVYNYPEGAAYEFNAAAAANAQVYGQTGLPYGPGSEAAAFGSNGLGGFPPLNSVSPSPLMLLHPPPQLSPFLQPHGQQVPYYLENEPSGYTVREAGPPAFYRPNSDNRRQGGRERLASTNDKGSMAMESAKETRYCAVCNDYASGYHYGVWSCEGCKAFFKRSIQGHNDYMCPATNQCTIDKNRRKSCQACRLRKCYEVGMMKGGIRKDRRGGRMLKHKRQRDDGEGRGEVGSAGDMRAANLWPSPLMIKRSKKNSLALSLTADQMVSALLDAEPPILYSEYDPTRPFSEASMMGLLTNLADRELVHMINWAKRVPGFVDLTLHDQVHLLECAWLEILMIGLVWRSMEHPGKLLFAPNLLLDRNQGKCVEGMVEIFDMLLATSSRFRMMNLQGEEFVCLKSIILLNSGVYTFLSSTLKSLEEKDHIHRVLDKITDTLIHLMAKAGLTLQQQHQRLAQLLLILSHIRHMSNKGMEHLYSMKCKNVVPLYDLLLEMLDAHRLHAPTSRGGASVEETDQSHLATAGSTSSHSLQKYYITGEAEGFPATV

[2] = biological target: T1, Estrogen receptor (Homo sapiens); assay: Antagonist activity at ERalpha in human MCF7 cells assessed as inhibition of 17beta-estradiol-mediated cell proliferation incubated for 5 days by WST-8 assay; format: cell-based
[3] = biological target: T1, Estrogen receptor (Homo sapiens); assay: Agonist activity at ERalpha in human MCF7 cells assessed as induction of cell proliferation incubated for 5 days by WST-8 assay; format: cell-based
[4] = biological target: T1, Estrogen receptor (Homo sapiens); assay: Displacement of [6,7-3H]17beta-estradiol from recombinant human ERalpha ligand binding domain incubated for 16 hrs by scintillation counting analysis

inhibition [1]	also measured	Structure (SMILES)
inactive		CC(=O)N1CCC(=C(c2ccc(O)cc2)c2ccc(O)cc2)CC1
Active	inhibition [2]: inactive; Activity [3]: Dose-dependent effect	CC(=O)N1C(C)(C)CC(=C(c2ccc(O)cc2)c2ccc(O)cc2)CC1(C)C
Active		CC1(C)CC(=C(c2ccc(O)cc2)c2ccc(O)cc2)CC(C)(C)N1
	inhibition [4]: Dose-dependent effect	CCOC(=O)N1CCC(=C(c2ccc(O)cc2)c2ccc(O)cc2)CC1
inactive		Oc1ccc(C(=C2CCNCC2)c2ccc(O)cc2)cc1
inactive		CN1CCC(=C(c2ccc(O)cc2)c2ccc(O)cc2)CC1
